Reference: patent US12502434B2, “Compound comprising EZH2 inhibitor and E3 ligase binder and pharmaceutical composition for preventing or treating EZH2-associated disease comprising same as active ingredient” (DAEGU-GYEONGBUK MEDICAL INNOVATION FOUNDATION, priority 2019, dated 2025)
Where two headings read alike, the source gives them in different places.

What was measured:
[1] = biological target: T1, EZH2 protein in LS174T cells (Homo sapiens, UniProt Q15910); test: Proteolytic effect in colorectal cancer cells (Western blotting); type: cell-based; conditions: for EZH2 proteolytic effect by Western blotting (figure, in words): FIGS. 1 to 5
T1 construct: endogenous in cells; host or cells: LS174T
T1 sequence (Q15910 whole entry): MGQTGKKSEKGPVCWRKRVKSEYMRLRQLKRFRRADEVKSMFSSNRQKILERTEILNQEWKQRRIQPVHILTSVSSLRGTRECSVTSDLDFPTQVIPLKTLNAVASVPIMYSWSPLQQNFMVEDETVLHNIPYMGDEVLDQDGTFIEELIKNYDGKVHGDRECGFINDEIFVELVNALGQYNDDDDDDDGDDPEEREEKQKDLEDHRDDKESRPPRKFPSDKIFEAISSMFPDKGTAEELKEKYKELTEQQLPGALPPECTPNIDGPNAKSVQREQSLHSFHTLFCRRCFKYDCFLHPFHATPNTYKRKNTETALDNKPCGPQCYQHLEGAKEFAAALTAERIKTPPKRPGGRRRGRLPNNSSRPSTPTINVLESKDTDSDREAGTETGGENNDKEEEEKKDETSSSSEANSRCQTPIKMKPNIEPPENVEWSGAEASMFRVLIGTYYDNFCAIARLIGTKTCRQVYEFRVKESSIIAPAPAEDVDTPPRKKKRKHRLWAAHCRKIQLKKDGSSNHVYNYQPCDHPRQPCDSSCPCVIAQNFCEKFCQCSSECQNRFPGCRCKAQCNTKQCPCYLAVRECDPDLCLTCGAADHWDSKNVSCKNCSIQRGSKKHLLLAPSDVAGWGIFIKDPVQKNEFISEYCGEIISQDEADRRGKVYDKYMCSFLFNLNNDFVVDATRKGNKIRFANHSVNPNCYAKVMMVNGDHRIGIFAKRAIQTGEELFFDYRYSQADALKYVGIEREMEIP
T1 sequence (O75530 whole entry partner): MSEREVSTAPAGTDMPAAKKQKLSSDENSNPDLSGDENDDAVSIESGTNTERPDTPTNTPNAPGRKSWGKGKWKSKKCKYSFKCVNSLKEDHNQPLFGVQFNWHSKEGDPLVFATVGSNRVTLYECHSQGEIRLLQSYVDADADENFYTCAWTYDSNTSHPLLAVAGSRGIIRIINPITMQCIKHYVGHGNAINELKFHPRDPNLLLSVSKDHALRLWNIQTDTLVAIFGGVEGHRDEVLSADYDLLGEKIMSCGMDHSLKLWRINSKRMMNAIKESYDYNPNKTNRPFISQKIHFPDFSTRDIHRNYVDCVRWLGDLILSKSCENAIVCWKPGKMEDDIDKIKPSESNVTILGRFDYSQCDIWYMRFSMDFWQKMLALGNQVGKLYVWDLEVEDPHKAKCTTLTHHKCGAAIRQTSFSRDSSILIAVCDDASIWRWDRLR
T1 sequence (Q15022 whole entry partner): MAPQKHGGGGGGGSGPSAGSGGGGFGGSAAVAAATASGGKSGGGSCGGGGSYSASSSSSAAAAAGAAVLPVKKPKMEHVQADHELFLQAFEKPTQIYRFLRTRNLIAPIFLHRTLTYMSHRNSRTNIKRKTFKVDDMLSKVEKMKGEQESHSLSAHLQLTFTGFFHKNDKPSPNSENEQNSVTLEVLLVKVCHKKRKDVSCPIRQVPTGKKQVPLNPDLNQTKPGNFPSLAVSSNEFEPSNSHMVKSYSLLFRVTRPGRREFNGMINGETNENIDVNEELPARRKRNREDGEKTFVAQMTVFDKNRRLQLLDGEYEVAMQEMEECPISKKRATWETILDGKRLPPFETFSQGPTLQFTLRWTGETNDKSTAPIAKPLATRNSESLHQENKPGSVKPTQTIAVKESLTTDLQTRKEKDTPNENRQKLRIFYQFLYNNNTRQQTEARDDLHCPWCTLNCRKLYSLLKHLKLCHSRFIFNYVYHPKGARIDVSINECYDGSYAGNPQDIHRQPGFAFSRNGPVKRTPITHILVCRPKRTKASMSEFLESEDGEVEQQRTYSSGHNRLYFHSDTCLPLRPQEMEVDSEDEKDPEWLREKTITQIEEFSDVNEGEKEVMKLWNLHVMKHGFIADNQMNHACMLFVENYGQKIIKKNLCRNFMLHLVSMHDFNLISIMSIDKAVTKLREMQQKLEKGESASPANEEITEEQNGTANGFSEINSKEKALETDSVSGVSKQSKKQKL
Description: After 72 hours of the treatment, the cells were collected and lysed using RIPA buffer (50 mM Tris, pH 7.5, 150 mM NaCl, 1% Triton X-100, 0.1% SDS, […], 0.5% deoxycholate, and protease inhibitor cocktail), followed by sonication (30 sec on/30 sec off, 5 cycles) to prepare a cell lysate.

[2] = biological target: T2, HiBiT-EZH2 in EZH2-HiBiT HEK293T cells (Homo sapiens, UniProt Q15910); test: EZH2 proteolytic activity using Nano-BiT assay system; type: cell-based; conditions: for EZH2 proteolytic ability compared to comparative compounds 1, 2 and 3 (in words): 1 μM; for Relative EZH2 degradation rate, 1 μM(%) Average: 72 hours, n = 3
T2 construct: endogenous in cells; host or cells: HEK293T (CRISPR/Cas9 HiBiT knock-in at the EZH2 locus)
T2 sequence (Q15910 whole entry): as the sequence (Q15910 whole entry) above
T2 sequence (O75530 whole entry partner): as the sequence (O75530 whole entry partner) above
T2 sequence (Q15022 whole entry partner): as the sequence (Q15022 whole entry partner) above
Description: In order to evaluate the EZH2 proteolytic activity of the compound according to the present invention, the following experiment was performed. Specifically, the CRISPR/Cas9 technique was used to construct a stable cell line of HiBiT-EZH2. […] After harvesting the cells, the cell solution was prepared at a concentration of 1 cell/100 ul, and 100 ul of the cell solution was dispensed into each well of a 96-well plate and seeded so that a single cell could proliferate in each well. After proliferating the cells for 2-3 weeks, some of the proliferated cells from one cell were recovered and gDNA was extracted. To confirm that the HiBiT sequence was correctly inserted into the EZH2 target, deep sequencing was performed to select the cells containing the HiBiT sequence, and after further verification through Sanger sequencing, the final EZH2-HiBiT HEK293T cells were obtained. 1×10^3 of the obtained cells were placed in a 96-well white plate, and after 18 hours of stabilization, each well was treated with the example compound at a final concentration of 1 μM. The control group was treated with the same concentration of DMSO which was used as the solvent of the example compound. After 72 hours of the treatment, an assay was performed using Nano-Glo HiBiT Lytic Detection System ([…], Promega). After removing the medium, 100 μL of lysis buffer, 1 μL of LgBiT protein and 1 μL of substrate buffer were added to each well. Then, the plate was reacted in a shaking incubator at 700 rpm for 2 minutes, and then the mixture of each well was pipetted to mix well. Thereafter, the plate was reacted at room temperature for 10 minutes while light was blocked, and luminescence was measured.

[3] = EZH2 protein, LS174T cells, 1 μM, 72 hours
[4] = EZH2 protein, LS174T cells, 1 uM, 72 hours, Western blotting

SMILES	Grade (percent value of the protein degradation when treated with 1 μM) [1, 3]	%, degradation at 1 uM [1, 4] [%]	effect of degrading EZH2 protein when treated to colorectal cancer cells (in words) ([1]; LS174T cells)	Relative EZH2 degradation rate, 1 μM(%) Average [2] [%]	also measured
CCN(c1cc(-c2ccc(CN3CCN(CC(=O)NCCCCCCCCCOCC(=O)N[C@H](C(=O)N4C[C@H](O)C[C@H]4C(=O)NCc4ccc(-c5scnc5C)cc4)C(C)(C)C)CC3)cc2)cc(C(=O)NCc2c(C)cc(C)[nH]c2=O)c1C)C1CCOCC1 [Example 49, (2S,4R)-1-((S)-2-(2-((9-(2-(4-((3′-(((4,6-dimethyl-2-oxo-1,2-dihydropyridine-3-yl)methyl)carbamoyl)-5′-(ethyl(tetrahydro-2H-pyran-4-yl)amino)-4′-methyl-[1,1′-biphenyl]-4-yl)methyl)piperazine-1-yl)acetamido)nonyl)oxy)acetamido)-3,3-dimethylbutanoyl)-4-hydroxy-N-(4-(4-methylthiazole-5-yl)benzyl)pyrrolidine-2-carboxamide]	A (>75%)	96.49	excellent effects	77.8	EZH2 proteolytic effect by Western blotting (figure, in words) [1]: confirming the EZH2 proteolytic effect; EZH2 proteolytic ability compared to comparative compounds 1, 2 and 3 (in words) [2]: significantly better EZH2 proteolytic ability
CCN(c1cc(-c2ccc(N3CCN(CC(=O)NCCCCCCNc4cccc5c4C(=O)N(C4CCC(=O)NC4=O)C5=O)CC3)cc2)cc(C(=O)NCc2c(C)cc(C)[nH]c2=O)c1C)C1CCOCC1 (centres unmarked) [compound 2, reference compound]				16.2	
CCN(c1cc(-c2ccc(CN3CCN(CCNC(=O)CCOCCNc4cccc5c4C(=O)N(C4CCC(=O)NC4=O)C5=O)CC3)cc2)cc(C(=O)NCc2c(C)cc(C)[nH]c2=O)c1C)C1CCOCC1 (centres unmarked) [compound 3, reference compound]				19.2	
CCN(c1cc(-c2ccc(OCC(=O)NCCCCCCNc3cccc4c3C(=O)N(C3CCC(=O)NC3=O)C4=O)cc2)cc(C(=O)NCc2c(C)cc(C)[nH]c2=O)c1C)C1CCOCC1 (centres unmarked) [compound 1, reference compound]				27.8	
CCN(c1cc(-c2ccc(CN3CCN(CC(=O)N4CCC5(CCN(CCNc6cccc7c6C(=O)N(C6CCC(=O)NC6=O)C7=O)CC5)CC4)CC3)cc2)cc(C(=O)NCc2c(C)cc(C)[nH]c2=O)c1C)C1CCOCC1 (centres unmarked) [Example 30, N-((4,6-dimethyl-2-oxo-1,2-dihydropyridine-3-yl)methyl)-4′-((4-(2-(9-(2-((2-(2,6-dioxopiperidine-3-yl)-1,3-dioxoisoindoline-4-yl)amino)ethyl)-3,9-diazaspiro[5.5]undecane-3-yl)-2-oxoethyl)piperazine-1-yl)methyl)-5-(ethyl(tetrahydro-2H-pyran-4-yl)amino)-4-methyl-[1,1′-biphenyl]-3-carboxamide]	A (>75%)	95.65	excellent effects	50.7	EZH2 proteolytic effect by Western blotting (figure, in words) [1]: confirming the EZH2 proteolytic effect; EZH2 proteolytic ability compared to comparative compounds 1, 2 and 3 (in words) [2]: significantly better EZH2 proteolytic ability
CCN(c1cc(-c2ccc(CN3CCN(CC(=O)N4CCC5(CCN(CCCC(=O)N[C@H](C(=O)N6C[C@H](O)C[C@H]6C(=O)NCc6ccc(-c7scnc7C)cc6)C(C)(C)C)CC5)CC4)CC3)cc2)cc(C(=O)NCc2c(C)cc(C)[nH]c2=O)c1C)C1CCOCC1 [Example 45, (2S,4R)-1-((S)-2-(4-(9-(2-(4-((3′-(((4,6-dimethyl-2-oxo-1,2-dihydropyridine-3-yl)methyl)carbamoyl)-5′-(ethyl(tetrahydro-2H-pyran-4-yl)amino)-4′-methyl-[1,1′-biphenyl]-4-yl)methyl)piperazine-1-yl)acetyl)-3,9-diazaspiro[5.5]undecane-3-yl)butanamido)-3,3-dimethylbutanoyl)-4-hydroxy-N-(4-(4-methylthiazole-5-yl)benzyl)pyrrolidine-2-carboxamide]	A (>75%)	76.02	excellent effects		
CCN(c1cc(-c2ccc(CN3CCN(C(=O)c4cn(CCC(=O)N[C@H](C(=O)N5C[C@H](O)C[C@H]5C(=O)NCc5ccc(-c6scnc6C)cc5)C(C)(C)C)nn4)CC3)cc2)cc(C(=O)NCc2c(C)cc(C)[nH]c2=O)c1C)C1CCOCC1 [Example 47, (2S,4R)-1-((S)-2-(3-(4-(4-((3′-(((4,6-dimethyl-2-oxo-1,2-dihydropyridine-3-yl)methyl)carbamoyl)-5′-(ethyl(tetrahydro-2H-pyran-4-yl)amino)-4′-methyl-[1,1′-biphenyl]-4-yl)methyl)piperazine-1-carbonyl)-1H-1,2,3-triazole-1-yl)propanamido)-3,3-dimethylbutanoyl)-4-hydroxy-N-(4-(4-methylthiazole-5-yl)benzyl)pyrrolidine-2-carboxamide]	D (<25%)	0			
CCN(c1cc(-c2ccc(CN3CCN(CC(=O)NCCNc4cccc5c4C(=O)N(C4CCC(=O)NC4=O)C5=O)CC3)cc2)cc(C(=O)NCc2c(C)cc(C)[nH]c2=O)c1C)C1CCOCC1 (centres unmarked) [Example 1, N-((4,6-dimethyl-2-oxo-1,2-dihydropyridine-3-yl)methyl)-4′-((4-(2-((2-((2-(2,6-dioxopiperidine-3-yl)-1,3-dioxoisoindoline-4-yl)amino)ethyl)amino)-2-oxoethyl)piperazine-1-yl)methyl)-5-(ethyl(tetrahydro-2H-pyran-4-yl)amino)-4-methyl-[1,1′-biphenyl]-3-carboxamide]	D (<25%)	8.15			
CCN(c1cc(-c2ccc(CN3CCN(CC(=O)NCCCCOc4cccc5c4C(=O)N(C4CCC(=O)NC4=O)C5=O)CC3)cc2)cc(C(=O)NCc2c(C)cc(C)[nH]c2=O)c1C)C1CCOCC1 (centres unmarked) [Example 7, N-((4,6-dimethyl-2-oxo-1,2-dihydropyridine-3-yl)methyl)-4′-((4-(2-((4-((2-(2,6-dioxopiperidine-3-yl)-1,3-dioxoisoindoline-4-yl)oxy)butyl)amino)-2-oxoethyl)piperazine-1-yl)methyl)-5-(ethyl(tetrahydro-2H-pyran-4-yl)amino)-4-methyl-[1,1′-biphenyl]-3-carboxamide]					%, degradation at 1 uM [1]: 22.74%; Grade (percent value of the protein degradation when treated with 1 μM) [1]: D (key: A: >75%; B: 50-75%; C: 25-50%; D: <25%)
CCN(c1cc(-c2ccc(CN3CCN(CC(=O)NCCCCCOCCCOCC(=O)Nc4cccc5c4CN(C4CCC(=O)NC4=O)C5=O)CC3)cc2)cc(C(=O)NCc2c(C)cc(C)[nH]c2=O)c1C)C1CCOCC1 (centres unmarked) [Example 27, N-((4,6-dimethyl-2-oxo-1,2-dihydropyridine-3-yl)methyl)-4′-((4-(2-((5-(3-(2-((2-(2,6-dioxopiperidine-3-yl)-1-oxoisoindoline-4-yl)amino)-2-oxoethoxy)propoxy)pentyl)amino)-2-oxoethyl)piperazine-1-yl)methyl)-5-(ethyl(tetrahydro-2H-pyran-4-yl)amino)-4-methyl-[1,1′-biphenyl]-3-carboxamide]	D (<25%)	2.27			
CCN(c1cc(-c2ccc(CN3CCN(C(=O)CNCCCCNc4cccc5c4C(=O)N(C4CCC(=O)NC4=O)C5=O)CC3)cc2)cc(C(=O)NCc2c(C)cc(C)[nH]c2=O)c1C)C1CCOCC1 (centres unmarked) [Example 13, N-((4,6-dimethyl-2-oxo-1,2-dihydropyridine-3-yl)methyl)-4′-((4-((4-((2-(2,6-dioxopiperidine-3-yl)-1,3-dioxoisoindoline-4-yl)amino)butyl)glycyl)piperazine-1-yl)methyl)-5-(ethyl(tetrahydro-2H-pyran-4-yl)amino)-4-methyl-[1,1′-biphenyl]-3-carboxamide]	C (25-50%)	29.35			
CCN(c1cc(-c2ccc(CN3CCN(CC(=O)N4CCC5(CCN(CCCCNc6cccc7c6C(=O)N(C6CCC(=O)NC6=O)C7=O)CC5)CC4)CC3)cc2)cc(C(=O)NCc2c(C)cc(C)[nH]c2=O)c1C)C1CCOCC1 (centres unmarked) [Example 33, N-((4,6-dimethyl-2-oxo-1,2-dihydropyridine-3-yl)methyl)-4′-((4-(2-(9-(4-((2-(2,6-dioxopiperidine-3-yl)-1,3-dioxoisoindoline-4-yl)amino)butyl)-3,9-diazaspiro[5.5]undecane-3-yl)-2-oxoethyl)piperazine-1-yl)methyl)-5-(ethyl(tetrahydro-2H-pyran-4-yl)amino)-4-methyl-[1,1′-biphenyl]-3-carboxamide]	A (>75%)	80.85	excellent effects		EZH2 proteolytic effect by Western blotting (figure, in words) [1]: confirming the EZH2 proteolytic effect
